Results taken from patent US20050288347A1, “Certain triazole-based compounds, compositions, and uses thereof” (priority 2004, published 2005).
Entries after “also recorded” stand apart in the source; their conditions may differ.

What follows are compounds tested on protein kinase (assay: HTS ATP-utilizing enzyme assay, off-chip mobility-shift format (Caliper HTS 250)). Details: not given.
Format: biochemical, human
Excerpt: The following procedures describe the reagent and plate preparation for a HTS of an ATP-utilizing enzyme, such as a protein kinase, run in an off-chip mobility-shift assay format. The following provides an HTS protocol for running a protein kinase HTS screen on a Caliper HTS 250 microfluidics system. The following parameters are dependent on the protein kinase used and can be determined by one skilled in the art as part of a typical assay development process. For example, the peptide substrate used can be identified from the current literature, by screening a peptide library of potential protein kinase substrates, or by other applicable means accepted in the field.
The following table provides typical screen assay parameters appropriate for a Caliper HTS 250 microfluidics system.
The reagents and buffers listed in the following table are generally applicable for developing and running an HTS screen on a human protein kinase using the Caliper HTS 250 system.
The following reagents were prepared using the previously described buffers.
A 2× Master Buffer solution was prepared by combining 200 mL of 1 M HEPES, pH 7.5, 2 mL of 10% Triton X-100, 20 mL of 10% BSA, and 778 mL of H2O.
Assays to determine the kinase inhibitory activity of chemical entities of the present disclosure were performed using a Caliper HTS 250 microfluidics device, Greiner U-bottom assay plates, a Multidrop for transfer of reagents, and Biomek FX (AMNCBM03) software. Initially, 2.4 μL of a 1 mM solution of a test compound in 100% DMSO was added to a well of the Greiner U-bottom plate. A single Greiner U-bottom plate having 24×16 wells could include multiple test compounds. […] Using the Biomek FX, 10 μL of 0.5 M EDTA was added by the span-8 to wells, indicated as 100% Control and 2.4 μL of 100% DMSO was added by the span-8 to wells, indicated as 0% Control. […] The total reaction volume in each well was 25 μL, and the concentration of the test compound was 10 μM. The assay plate was incubated for 2.5 hrs at 20° C. to 22° C. […] The inhibition of the ATP-utilizing enzyme, such as a particular protein kinase, was determined by measuring the ratio of the peptide substrate to phosphorylated product for each well of the assay plate using the Caliper HTS 250 system.
The use of three-sigma statistical limits represents a conservative method for declaring potential hits among targets. The three-sigma activity, as well as the mean population activity, can be different for each target enzyme.

Structure (SMILES)	protein kinase against which the compound exhibits inhibitory activity (Table 3)	Kinase
COc1ccccc1-n1c(SCC2COc3ccccc3O2)nnc1-c1cccc(Cl)c1 (stereo not drawn)	MAPKAPK-3	
COc1ccccc1-n1c(SCCCCc2ccccc2)nnc1-c1cccc(N(C)C)c1	MAPKAPK-3	
COc1ccccc1-n1c(SCCCCc2ccccc2)nnc1-c1cc(C)n[nH]1	MAPKAPK-3	
COc1ccccc1-n1c(SCCCCc2ccccc2)nnc1-c1ccc(N)nc1	MAPKAPK-3	
COc1ccccc1-n1c(SCCC(=O)Nc2cc(NC(=O)c3ccco3)ccc2C)nnc1-c1ccccc1	MAPKAPK-3	
Cn1c(SCC(=O)NCc2ccc3c(c2)OCO3)nnc1-c1cc2ccccc2cc1O		CSK

Same assay, conditions: kinase(s) for which the compound exhibits protein kinase inhibitory activity; test compound 10 μM; active = greater than three-sigma from the mean activity of inactive compounds

Structure (SMILES)	Kinase
O=C(CSc1nnc(-c2ccc(O)cc2)n1Cc1ccco1)N1CCc2ccccc2C1	GSK3-β and GSK3-α and SRC
Cc1nnc(SCC(=O)N2CCCc3ccccc32)n1-c1ccccc1	c-TAK1
O=C(CSc1nnc(-c2cccnc2)n1Cc1ccco1)Nc1nccs1	GSK3-α; also recorded: GSK3-β; also recorded: CDK2-cyclinE
CC1CCCCC1NC(=O)CSc1nnc(-c2ccccc2)n1Cc1ccccc1 (stereo not drawn)	AKT1
CCn1c(SCC(=O)N2CCN(c3ccc(OC)cc3)CC2)nnc1-c1ccc(O)cc1	SYK
COc1cc(-c2nnc(SCC(=O)Nc3cc([N+](=O)[O-])ccc3C)n2C)cc(OC)c1OC	MAPKAPK-2
CCn1c(SCC(=O)Nc2nccs2)nnc1C1COc2ccccc2O1 (stereo not drawn)	GSK3-α; also recorded: GSK3-β
COc1ccc(-n2c(SC(C)C(=O)Nc3ccc(C)cc3)nnc2-c2ccc(O)cc2)cc1 (stereo not drawn)	GSK3-α
CCn1c(CNc2ccccc2Cl)nnc1SC(C)C(=O)Nc1ccc([N+](=O)[O-])cc1 (stereo not drawn)	PDGFRR-α
CCOc1ccc(NCc2nnc(SC(C)C(=O)N(c3ccccc3)c3ccccc3)n2-c2ccc(OC)cc2)cc1 (stereo not drawn)	FYN
COc1ccc(NCc2nnc(SCC(=O)N3c4ccccc4Sc4ccccc43)n2-c2ccccc2)cc1	PDGFRR-α
COc1ccc(NCc2nnc(SCC(=O)N(c3ccccc3)c3ccccc3)n2-c2ccccc2)cc1	CHEK2; also recorded: PDGFRR-α; also recorded: FYN α
CCn1c(CSc2nc(C)cc(C)n2)nnc1SCC(=O)Nc1nccs1	GSK3-α
Cc1ccc(-n2c(Cc3ccccc3)nnc2SCC(=O)N2c3ccccc3Sc3ccccc32)cc1	CDK2-cyclinE
CCOc1ccc(NCc2nnc(S)n2-c2cccc(Cl)c2)cc1	PDGFRR-α; also recorded: FLT-3
COc1ccc(-n2c(S)nnc2CNc2ccc(Cl)cc2)cc1	AURORA-A; also recorded: GSK3-α
CCOc1ccc(NCc2nnc(S)n2-c2ccc(OC)cc2)cc1	FLT-3; also recorded: PDGFRR-α; also recorded: AURORA-A
COc1cc(NC(=O)c2ccco2)c(OC)cc1NC(=O)CSc1nnc(-c2cccs2)n1C	PDGFRR-α
CCn1c(SCC(=O)Nc2sc(C)c(C)c2C#N)nnc1-c1ccc(S(=O)(=O)N2CCOCC2)cc1	DAPK1
COc1ccc(NCc2nnc(SCC(=O)Nc3cccc(O)c3)n2-c2ccccc2OC)cc1	CHEK2; also recorded: PDGFRR-α; also recorded: AURORA-A
CCOc1ccc2nc(NC(=O)CSc3nnc(-c4ccncc4)n3CCCOC)sc2c1	GSK3-β; also recorded: PDGFRR-α; also recorded: GSK3-α
CCOC(=O)CN(C(=O)CSc1nnc(-c2ccccc2)n1-c1ccccc1OC)c1cccc([N+](=O)[O-])c1	GSK3-α
C=CCn1c(SCC(=O)Nc2sc3c(c2C(=O)OCC)CCC3)nnc1-c1ccncc1	CDK1 and AURORA-A
CCOC(=O)CN(C(=O)CSc1nnc(CNc2ccc(F)cc2)n1-c1ccccc1)c1ccccc1	LCK
CCOC(=O)c1c(NC(=O)CSc2nnc(CNc3ccc(OC)cc3)n2C)sc(C)c1C	PDGFRR-α; also recorded: FLT-3; also recorded: AURORA-A
CCOC(=O)CN(C(=O)CSc1nnc(-c2ccncc2)n1-c1ccccc1)c1ccccc1	PDGFRR-α
CCOC(=O)c1ccc(NC(=O)CSc2nnc(C)n2CCOC)cc1	AKT1
COC(=O)c1sc(NC(=O)CSc2nnc(-c3ccco3)n2C)nc1C	GSK3-β; also recorded: GSK3-α

Further lines, results first:

Kinase	Structure (SMILES)
FYN	COc1ccc(NCc2nnc(SCC(=O)Nc3ccccc3C(=O)O)n2-c2ccc(OC)cc2)cc1
GSK3-β; also recorded: GSK3-α	CCc1nnc(NC(=O)CSc2nnc(-c3ccc(O)cc3)n2-c2cccc(Cl)c2)s1
GSK3-β; also recorded: GSK3-α	NC(=O)CSc1nnc(-c2ccc(O)cc2)n1-c1cccc(Cl)c1
SRC	NC(=O)CSc1nnc(-c2cc3ccccc3cc2O)n1Cc1ccco1
GSK3-β and AKT3 and SRC	O=C(CSc1nnc(-c2ccncc2)n1Cc1ccco1)Nc1cccc(I)c1
CDK2-cyclinE	Cc1cccc(-c2nnc(SCC(=O)Nc3cccc(C(F)(F)F)c3)n2C)c1
AURORA-A	COc1ccccc1-c1nnc(SCC(=O)Nc2ccccc2)n1C
DAPK1	COc1ccc(N2CCN(C(=O)CSc3nnc(-c4cc5ccccc5cc4O)n3C)CC2)cc1
GSK3-α	Cn1c(Cn2nnc3ccccc32)nnc1SCC(=O)Nc1cccc(O)c1
CDK2-cyclinA and CDK1 and AURORA-A	NC(=O)CSc1nnc(CNc2cccc(Cl)c2)n1CCc1ccccc1
CDK2-cyclinE	O=C(CSc1nnc(CNc2cccc(Cl)c2)n1CCc1ccccc1)NC1CCCCC1
MSK1 and SGK1	COc1ccccc1NC(=O)CSc1nnc(CNc2cccc(Cl)c2)n1-c1ccccc1
PDGFRR-α	CCc1ccccc1NC(=O)CSc1nnc(COc2ccc(Cl)cc2)n1C
c-TAK1	CCn1c(CNc2ccc(Cl)cc2)nnc1SCC(=O)Nc1ccccc1
PDGFRR-α and FYN	CCOc1ccc(NCc2nnc(SCC(=O)Nc3cc(C)on3)n2-c2ccccc2OC)cc1
CHEK2	Cn1c(CNc2ccc(F)cc2)nnc1SCC(=O)Nc1ccc([N+](=O)[O-])cc1
AKT1	Cc1ccc(-n2c(CNc3ccc(F)cc3)nnc2SCC(=O)Nc2ccccc2C(F)(F)F)cc1
PDGFRR-α and FYN	COc1ccc(NCc2nnc(SCC(N)=O)n2C)cc1
PDGFRR-α and FYN	COc1ccc(NCc2nnc(SCC(=O)Nc3ncc(C)s3)n2-c2ccccc2)cc1
CDK1	Cc1cc(C)nc(SCc2nnc(SCC(=O)Nc3cccc(C(F)(F)F)c3)n2C)n1
AURORA-A	CCn1c(CNc2ccc(C)cc2)nnc1SCC(=O)Nc1ccccc1OC

Kinase	Structure (SMILES)
CHEK2	CCn1c(CNc2ccc(C)cc2)nnc1SCC(=O)Nc1cccc(Cl)c1
CHEK2	COc1cccc(NC(=O)CSc2nnc(CNc3ccc(C)cc3)n2C)c1
PDGFRR-α	CCc1ccccc1NC(=O)CSc1nnc(COc2ccc(C)cc2)n1C
FYN and PDGFRR-α and FLT-3	CCOc1ccc(NCc2nnc(SCC(=O)Nc3cccc(C(C)=O)c3)n2-c2ccccc2)cc1
PDGFRR-α and FYN and AURORA-A	COc1ccc(NCc2nnc(SCC(=O)Nc3cccc(Cl)c3)n2-c2ccc(C)cc2)cc1
PDGFRR-α and AURORA-A and FYN	COc1ccc(NCc2nnc(SCC(=O)Nc3cccc(Cl)c3)n2C)cc1
AKT1	COCCn1c(SCC(=O)Nc2cccc(O)c2)nnc1-c1ccncc1
GSK3-α; also recorded: CDK2-cyclinE	COc1cccc(NC(=O)CSc2nnc(COc3cccc(C)c3)n2C)c1
GSK3-α	CCC(=O)Nc1ccc(NC(=O)CSc2nnc(-c3ccc(O)cc3)n2CC)cc1C
CHEK2	CC(=O)c1ccc(NC(=O)CSc2nnc(COc3ccccc3)n2-c2ccc(C)cc2)cc1
GSK3-α and AKT1	CCOc1ccc2nc(NC(=O)CSc3nnc(-c4ccncc4)n3Cc3ccco3)sc2c1
AKT1	COc1ccc(-c2nnc(SCC(=O)Nc3ccc4c(c3)OCO4)n2C)cc1
GSK3-α	CCn1c(CNc2ccc(C)cc2C)nnc1SCC(=O)Nc1ccccc1-c1ccccc1
LCK	Cc1cccc(C)c1NCc1nnc(SCC(=O)Nc2ccccc2-c2ccccc2)n1C
PDGFRR-α and FYN and CHEK2	COc1ccc(NCc2nnc(SCC(=O)Nc3cccc(-c4ccccc4)c3)n2C)cc1
GSK3-α	O=C(CSc1nnc(Cn2nnc(-c3ccccc3)n2)n1-c1ccccc1)Nc1ccccc1
SGK1 and CDK1	O=C(CSc1nnc(COc2cccc3cccnc23)n1-c1ccccc1)Nc1ccccc1
PDGFRR-α and FYN	CCOC(=O)CN(C(=O)CSc1nnc(-c2ccc([N+](=O)[O-])cc2)n1C)c1ccccc1
CHEK2	CCOC(=O)c1ccc(NC(=O)CSc2nnc(CNc3ccc(C)cc3)n2CC)cc1
AURORA-A	COC(=O)c1ccccc1NC(=O)CSc1nnc(CNc2cccc(Cl)c2)n1C
